In this experiment the target is Free fatty acid receptor 1 (Homo sapiens, UniProt O14842). In words: GPR40 FDSS Assay. To be noted: 37 °C. The protocol:
Human embryonic kidney (HEK293) cells expressing human GPR40 receptors were grown in Dulbecco modified Eagles medium (DMEM)/F12 media supplemented with 10% fetal FBS and glutamine. Changes in ligand-induced calcium-dependent intracellular fluorescence were measured with a fluorometric plate reader (FDSS; Hamamatsu Corp., Bridgewater, NJ).

In general, EC50 refers to the concentration giving half of the maximal effect. A low value points to higher potency in that assay.

The structures appear in SMILES notation.

Chain of Free fatty acid receptor 1 (O14842 whole entry): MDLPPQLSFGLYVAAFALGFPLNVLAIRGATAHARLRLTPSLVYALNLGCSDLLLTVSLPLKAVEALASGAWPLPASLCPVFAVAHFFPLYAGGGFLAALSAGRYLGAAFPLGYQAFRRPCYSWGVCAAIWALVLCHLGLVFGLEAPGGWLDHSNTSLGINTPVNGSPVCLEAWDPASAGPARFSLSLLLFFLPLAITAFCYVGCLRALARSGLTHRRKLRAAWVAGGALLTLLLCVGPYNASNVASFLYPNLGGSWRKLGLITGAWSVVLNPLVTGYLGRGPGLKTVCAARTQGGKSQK

In turn, `CCCCOc1ccc(C(CC(=O)O)c2cccs2)cc1` (stereo not given) [3-(4-butoxyphenyl)-3-(thiophen-2-yl)propanoic acid] showed a concentration giving a half-maximal response (EC50) of 1290 nM.
To `CCCCOc1ccc(C(CC(=O)O)c2ccc(C(F)(F)F)cc2)cc1` (stereo not given) [3-(4-butoxyphenyl)-3-[4-(trifluoromethyl)phenyl]propanoic acid] belongs more than 10000 nM; to `CCCCOc1ccc(C(CC(=O)O)c2ccccc2)cc1` (stereo not given) [3-(4-butoxyphenyl)-3-phenylpropanoic acid], 1200 nM.
Compound `CCCCCOc1cccc(C(CC(=O)O)c2ccccc2)c1` (stereo not given) [3-[3-(pentyloxy)phenyl]-3-phenylpropanoic acid] registered an EC50 of more than 10000 nM.
In the case of `CCC(C)COc1ccc(C(CC(=O)O)c2ccccc2)cc1` (stereo not given) [3-[4-(2-methylbutoxy)phenyl]-3-phenylpropanoic acid] it was 300 nM.
To `CC(C)CCOc1ccc(C(CC(=O)O)c2ccccc2)cc1` (stereo not given) [3-[4-(3-methylbutoxy)phenyl]-3-phenylpropanoic acid] belongs 1860 nM; to `CCCCCOc1ccc(C(CC(=O)O)c2ccccc2)cc1` (stereo not given) [3-[4-(pentyloxy)phenyl]-3-phenylpropanoic acid], 2970 nM.
In the case of `CCCOc1ccc(C(CC(=O)O)c2ccccc2)cc1` (stereo not given) [3-phenyl-3-(4-propoxyphenyl)propanoic acid] it was 4800 nM; in that of `C/C=C/COc1ccc(C(CC(=O)O)c2ccccc2)cc1` (stereo not given) [3-{4-[(2E)-but-2-en-1-yloxy]phenyl}-3-phenylpropanoic acid], 2710 nM; in that of `CCCCOc1ccc(C(CCCC(=O)O)c2ccccc2)cc1` (stereo not given) [5-(4-butoxyphenyl)-5-phenylpentanoic acid], more than 10000 nM.

Values taken from BindingDB's records for doi:10.1021/jm070130j (Johnson & Johnson Pharmaceutical, 2007).
